Like-named read-outs stand apart in the source and are kept apart here.

The record followed here is patent publication US20150133397A1, “METHOD OF REDUCING FASTING INSULIN LEVELS IN MTHFR GENE DEFICIENT SUBJECTS WITH NORMAL TO SLIGHTLY ELEVATED HEMOGLOBIN A1C” (priority 2013, published 2015).

The conditions of assay [1]: MTHFR677 tt, retested 6 months later.
Description: (§1) The test subject was given a fasting insulin test.
For assay [2] the following is noted: MTHFR677 tt, retested 6 months later. This is another data set of the same source.
Description: The HbA1C test is a common blood test used to diagnose type 1 and type 2 diabetes and then to gauge how well the subject is managing diabetes or the subjects risk of becoming diabetic. The A1C test result reflects the subjects average blood sugar level for the past two to three months. Specifically, the A1C test measures what percentage of the subject's hemoglobin is coated with sugar (glycated). […] According to the American Diabetes Association guidelines a HbA1C of between 4 and 5.6% falls within normal parameters, HbA1C between 5.7 and 6.4% are considered slightly elevated and indicate a prediabetic state as where HbA1C of greater than 6.5% is considered diabetic.
as §1

With `CN1c2c([nH]c(N)nc2=O)NC[C@@H]1CNc1ccc(C(=O)N[C@@H](CCC(=O)O)C(=O)O)cc1` [L-methylfolate], the fasting insulin level in assay [1] (Example 1: person, 3 mgs L-methylfolate with 2 mgs methyl B12 once daily, before treatment 40 μU/ml) worked out at 9 μU/ml; in assay [1] (Example 2: person, 15 mgs L-methylfolate with 2 mgs methyl B12 once daily, before treatment 100 μU/ml) it was 11 μU/ml. Moreover, the HbA1C in assay [2] (Example 1: person, 3 mgs L-methylfolate with 2 mgs methyl B12 once daily, before treatment 4.9%) came out at 4.9%; in assay [2] (Example 2: person, 15 mgs L-methylfolate with 2 mgs methyl B12 once daily, before treatment 5.3%), 5.3%.
